From paper PMC12040169 (PLOS Biology, 2025)

test: in vitro; details: human, hela cells, % viability

In order of rising viability at 28.5 h, 10 µM:
1. COc1cc(Nc2cncc(-c3ccc(N)cc3)n2)cc(OC)c1OC [CBK065642]  56.2%
2. CCNc1cncc(-c2ccccc2)n1 [CBK065847]  85.5%
3. NC(=O)c1ccc(-c2cncc(NCc3ccco3)n2)cc1 [CBK065383]  85.6%
4. C[C@@H](Nc1cncc(-c2ccc(F)cc2F)n1)c1ccccc1 [CBK065676]  87%
5. C[C@@H](Nc1cncc(-c2cccc(N)c2)n1)c1ccccc1 [CBK065273]  87.1%
6. CN(C)CCN(C)c1cncc(-c2cccc(N)c2)n1 [CBK065270]  87.3%
7. CCOc1ccc(-c2cncc(NC3CCC(O)CC3)n2)cc1 (centres unmarked) [CBK065877]  88.9%
8. N#Cc1cccc(Nc2cncc(-c3cccc(N)c3)n2)c1 [CBK065319]  89.1%
9. Cc1ccc(-c2cncc(N3CCCC3CO)n2)cc1C (centres unmarked) [CBK065945]  89.1%
10. OCc1ccccc1-c1cncc(NCc2ccc3c(c2)OCO3)n1 [CBK065318]  89.2%
11. OCC1CCCN1c1cncc(-c2cccc3ccccc23)n1 (centres unmarked) [CBK065509]  91.1%
12. CC(=O)Nc1ccc(-c2cncc(NC(C)CCCC(C)(C)O)n2)cc1 (centres unmarked) [CBK065894]  91.1%
13. Fc1ccc(-c2cncc(NCCc3cccnc3)n2)cc1Cl [CBK065745]  91.3%
14. CCC(CO)Nc1cncc(-c2cc(C(C)C)ccc2OC)n1 (centres unmarked) [CBK065743]  91.7%
15. CN1CCN(c2cncc(-c3ccccc3CO)n2)CC1 [CBK065302]  91.8%
16. COc1ccc(-c2cncc(N3CCN(C)CC3)n2)cc1 [CBK065378]  91.8%
17. OCCNc1cncc(-c2ccccc2)n1 [CBK065857]  92%
18. CC(C)[C@H](CO)Nc1cncc(-c2ccc(F)cc2F)n1 [CBK065883]  92.3%
19. COc1ncc(-c2cncc(N[C@H](C)c3ccccc3)n2)c(OC)n1 [CBK065267]  92.4%
20. COc1ccc(C(C)C)cc1-c1cncc(NC(C)CCCC(C)(C)O)n1 (centres unmarked) [CBK065521]  93.3%
21. Clc1cccc(Nc2cncc(-c3cccc4ccccc34)n2)c1 [CBK065764]  93.4%
22. COc1ccc(N2CCN(c3cncc(-c4ccc(C(N)=O)cc4)n3)CC2)cc1OC [CBK065820]  93.8%
23. CC(=O)Nc1ccc(-c2cncc(NC3CCC(O)CC3)n2)cc1 (centres unmarked) [CBK065886]  93.9%
24. Fc1ccc(Nc2cncc(-c3cccs3)n2)cc1Cl [CBK065813]  94.3%
25. COc1cc(-c2cncc(NCCc3ccncc3)n2)cc(OC)c1OC [CBK065405]  94.4%
26. Fc1cccc(-c2cncc(NCCc3c[nH]c4ccccc34)n2)c1 [CBK065288]  94.7%
27. COc1ccc(C(C)C)cc1-c1cncc(NCCc2ccccn2)n1 [CBK065325]  94.9%
28. COc1cncc(-c2cncc(Nc3cc(OC)c(OC)c(OC)c3)n2)c1 [CBK065397]  95.1%
29. COc1ccc(C(C)C)cc1-c1cncc(NCc2ccc3c(c2)OCO3)n1 [CBK065348]  95.2%
30. OCCN(CCO)c1cncc(-c2cccs2)n1 [CBK065766]  95.4%
31. O=C(O)C1CCN(c2cncc(-c3ccc4ccccc4c3)n2)CC1 [CBK065801]  95.5%
32. CCCNc1cncc(-c2cccc(CO)c2)n1 [CBK065433]  95.7%
33. CCNc1cncc(-c2ccc(C(N)=O)cc2)n1 [CBK065414]  96.2%
34. NC(=O)c1ccc(-c2cncc(N3CCN(CCO)CC3)n2)cc1 [CBK065392]  96.5%
35. C[C@H](Nc1cncc(-c2cccnc2)n1)c1ccccc1 [CBK065807]  96.7%
36. CCCC/C=C/c1cncc(N[C@H](CO)C(C)C)n1 [CBK065314]  97%
37. CCOc1ccc(-c2cncc(N3CCC(C(=O)O)CC3)n2)cc1 [CBK065870]  97.2%
38. c1csc(CNc2cncc(-c3ccncc3)n2)c1 [CBK065238]  97.3%
39. OCc1cccc(-c2cncc(Nc3ccccc3)n2)c1 [CBK065576]  97.4%
40. COc1ncc(-c2cncc(NCCc3ccccn3)n2)c(OC)n1 [CBK065287]  97.7%
41. CC(=O)Nc1ccc(-c2cncc(N(C)CCN(C)C)n2)cc1 [CBK065694]  97.8%
42. CN1CCCN(c2cncc(-c3ccc(F)cc3F)n2)CC1 [CBK065858]  97.9%
43. c1ccc(CN2CCN(c3cncc(-c4cccs4)n3)CC2)nc1 [CBK065734]  98.1%
44. CC(=O)Nc1cccc(-c2cncc(N[C@H](CO)C(C)C)n2)c1 [CBK065475]  98.2%
45. COc1cc(-c2cncc(NCc3ccncc3)n2)cc(OC)c1OC [CBK065263]  98.9%
46. O=C(NCCO)c1cccc(-c2cncc(NCCCN3CCOCC3)n2)c1 [CBK065432]  99.4%
47. O=C(O)/C=C/c1cccc(-c2cncc(NCCc3ccncc3)n2)c1 [CBK065358]  99.5%
48. CN(C)CCN(C)c1cncc(-c2cccc(/C=C/C(=O)O)c2)n1 [CBK065451]  99.5%
49. Clc1ccc(-c2cncc(NCCc3ccncc3)n2)cc1 [CBK065787]  99.5%
50. CC(=O)Nc1cccc(-c2cncc(NCc3ccco3)n2)c1 [CBK065290]  100%
51. CC(C)[C@@H](CO)Nc1cncc(-c2ccc3ccccc3c2)n1 [CBK065546]  100%
52. CCC(CO)Nc1cncc(-c2ccc(C(N)=O)cc2)n1 (centres unmarked) [CBK065577]  100%
53. CN(C)CCN(C)c1cncc(-c2cccc(N(C)C)c2)n1 [CBK065659]  100%
54. OCC1CCCN1c1cncc(-c2ccc3c(c2)OCO3)n1 (centres unmarked) [CBK065908]  100%
55. CC(C)(CO)CNc1cncc(-c2cccc(C(F)(F)F)c2)n1 [CBK065248]  102%
56. COc1ccc(C(C)C)cc1-c1cncc(N[C@@H](CO)C(C)C)n1 [CBK065356]  102%
57. OCc1ccccc1-c1cncc(Nc2cccc(Cl)c2)n1 [CBK065400]  102%
58. COc1cc(-c2cncc(NC(C)CCCC(C)(C)O)n2)cc(OC)c1OC (centres unmarked) [CBK065481]  102%
59. c1ccc(N2CCN(c3cncc(-c4cccs4)n3)CC2)nc1 [CBK065502]  102%
60. C[C@H](Nc1cncc(-c2cccc(CO)c2)n1)c1ccccc1 [CBK065512]  102%
61. CN(C)c1cccc(-c2cncc(NCCCO)n2)c1 [CBK065619]  102%
62. Cc1ccc(-c2cncc(N3CCN(CCO)CC3)n2)cc1C [CBK065912]  102%
63. CC(=O)Nc1cccc(-c2cncc(NCCc3ccccn3)n2)c1 [CBK065359]  103%
64. Nc1ccc(-c2cncc(NCCc3ccccn3)n2)cc1 [CBK065632]  103%
65. CC(=O)Nc1ccc(-c2cncc(N3CCN(CCN4CCCC4)CC3)n2)cc1 [CBK065710]  103%
66. OCc1ccccc1-c1cncc(NCc2cccs2)n1 [CBK065345]  104%
67. CN(C)CCN1CCN(c2cncc(-c3cccc(C(=O)O)c3)n2)CC1 [CBK065443]  104%
68. CCCC/C=C/c1cncc(NC(C)CCCC(C)(C)O)n1 (centres unmarked) [CBK065505]  104%
69. COc1cc(-c2cncc(N[C@@H](C)c3ccccc3)n2)cc(OC)c1OC [CBK065551]  104%
70. COc1ccc(N2CCN(c3cncc(-c4cccs4)n3)CC2)cc1OC [CBK065687]  104%
71. OCCC1CCCCN1c1cncc(-c2cccs2)n1 (centres unmarked) [CBK065758]  104%
72. FC(F)(F)Oc1cccc(-c2cncc(NCc3ccncc3)n2)c1 [CBK065926]  104%
73. COc1ccc(C(C)C)cc1-c1cncc(N(C)CCN(C)C)n1 [CBK065364]  105%
74. Clc1cccc(CNc2cncc(-c3cccs3)n2)c1 [CBK065609]  105%
75. c1csc(-c2cncc(NCCc3ccncc3)n2)c1 [CBK065797]  105%
76. COc1cc(CNc2cncc(-c3cccs3)n2)cc(OC)c1OC [CBK065526]  106%
77. C[C@@H](Nc1cncc(-c2ccccc2CO)n1)c1ccccc1 [CBK065543]  106%
78. CN(C)CCN(C)c1cncc(-c2cccc3ccccc23)n1 [CBK065709]  106%
79. CCN(CC)CCN1CCN(c2cncc(-c3ccc(F)cc3F)n2)CC1 [CBK065668]  107%
80. C[C@@H](Nc1cncc(-c2cccs2)n1)c1ccccc1 [CBK065711]  108%
81. C[C@H](Nc1cncc(-c2ccc3ccccc3c2)n1)c1ccccc1 [CBK065799]  108%
82. OCCN1CCN(c2cncc(-c3cccc(OC(F)(F)F)c3)n2)CC1 [CBK065941]  108%
83. CCCC/C=C/c1cncc(NCCO)n1 [CBK065419]  109%
84. CCCNc1cncc(-c2cccc(O)c2)n1 [CBK065447]  109%
85. Nc1ccc(-c2cncc(NCc3ccccc3)n2)cc1 [CBK065578]  109%
86. CCOc1ccc(-c2cncc(N3CCN(C(=O)c4ccco4)CC3)n2)cc1 [CBK065860]  109%
87. CN(C)CCNC(=O)c1cccc(-c2cncc(NCc3ccc4c(c3)OCO4)n2)c1 [CBK065361]  110%
88. COc1ccc(-c2cncc(NCc3ccncc3)n2)cc1 [CBK065394]  111%
89. COc1cc(-c2cncc(N(CCO)CCO)n2)cc(OC)c1OC [CBK065544]  112%
90. COc1cncc(-c2cncc(Nc3ccccc3)n2)c1 [CBK065435]  113%
91. COc1cc(-c2cncc(NCc3cccc(Cl)c3)n2)cc(OC)c1OC [CBK065284]  115%
92. CN(C)CCN(C)c1cncc(-c2cccc(C(F)(F)F)c2)n1 [CBK065584]  115%
93. COc1cc(CNc2cncc(-c3ccc(F)cc3F)n2)cc(OC)c1OC [CBK065826]  115%
94. COc1ccc(CNc2cncc(-c3ccc(C(C)C)cc3)n2)cc1 [CBK065514]  119%
95. COc1cncc(-c2cncc(N3CCN(CCN(C)C)CC3)n2)c1 [CBK065393]  120%
